# Measurements reported in PubChem BioAssay (NCI).
#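 Abbreviation: GI50, concentration required for 50% inhibition of growth. TGI marks complete inhibition of growth.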
# Columns and labels:
# Assay in all cases: inhibition of tumour cell growth, NCI panel, 384-well format
# [1] = tested on: 786-0 renal
# [2] = tested on: A498 renal
# [3] = tested on: A549 NSCLC
# [4] = tested on: ACHN renal
# [5] = tested on: BT-549 breast
# [6] = tested on: CAKI-1 renal
# [7] = tested on: CCRF-CEM leukemia
# [8] = tested on: COLO 205 colon
# [9] = tested on: DU-145 prostate
# [10] = tested on: EKVX NSCLC
# [11] = tested on: HCC-2998 colon
# [12] = tested on: HCT-15 colon
# [13] = tested on: HL-60(TB) leukemia
# [14] = tested on: HOP-62 NSCLC
# [15] = tested on: HOP-92 NSCLC
# [16] = tested on: HS 578T breast
# [17] = tested on: HT29 colon
# [18] = tested on: IGROV1 ovarian
# [19] = tested on: KM12 colon
# [20] = tested on: M14 melanoma
# [21] = tested on: MALME-3M melanoma
# [22] = tested on: MCF7 breast
# [23] = tested on: MDA-MB-231 breast
# [24] = tested on: MDA-MB-435 melanoma
# [25] = tested on: MDA-MB-468 breast
# [26] = tested on: MOLT-4 leukemia
# [27] = tested on: NCI-H226 lung
# [28] = tested on: NCI-H23 lung
# [29] = tested on: NCI-H322M lung
# [30] = tested on: NCI-H460 NSCLC
# [31] = tested on: NCI-H522 lung
# [32] = tested on: NCI/ADR-RES ovarian
# [33] = tested on: OVCAR-3 ovarian
# [34] = tested on: OVCAR-4 ovarian
# [35] = tested on: OVCAR-5 ovarian
# [36] = tested on: OVCAR-8 ovarian
# [37] = tested on: PC-3 prostate
# [38] = tested on: RPMI-8226 leukemia
# [39] = tested on: RXF 393 renal
# [40] = tested on: SF-268 CNS
# [41] = tested on: SF-295 CNS
# [42] = tested on: SF-539 CNS
# [43] = tested on: SK-MEL-2 melanoma
# [44] = tested on: SK-MEL-28 melanoma
# [45] = tested on: SK-MEL-5 melanoma
# [46] = tested on: SK-OV-3 ovarian
# [47] = tested on: SN12C renal
# [48] = tested on: SNB-19 CNS
# [49] = tested on: SNB-75 CNS
# [50] = tested on: SR leukemia
# [51] = tested on: SW-620 colon
# [52] = tested on: T-47D breast
# [53] = tested on: TK-10 renal
# [54] = tested on: U251 glioblastoma
# [55] = tested on: UACC-257 melanoma
# [56] = tested on: UACC-62 melanoma
smiles,measurement,setting,value
O=c1[nH]c(C2CCCN2)nc2c1oc1ccc(Cl)cc12 (configuration not stated),GI50,[1],> 100 µM
same,TGI,[1],> 100 µM
same,GI50,[2],58.5 µM
same,TGI,[2],> 100 µM
same,GI50,[3],> 100 µM
same,TGI,[3],> 100 µM
same,GI50,[4],> 100 µM
same,TGI,[4],> 100 µM
same,GI50,[5],29.3 µM
same,TGI,[5],78.4 µM
same,GI50,[6],57 µM
same,TGI,[6],> 100 µM
same,GI50,[7],18.2 µM
same,TGI,[7],37.8 µM
same,GI50,[8],31.2 µM
same,TGI,[8],83 µM
same,GI50,[9],> 100 µM
same,TGI,[9],> 100 µM
same,GI50,[10],85 µM
same,TGI,[10],> 100 µM
same,GI50,[11],> 100 µM
same,TGI,[11],> 100 µM
same,GI50,[12],> 100 µM
same,TGI,[12],> 100 µM
same,GI50,[13],29.8 µM
same,TGI,[13],> 100 µM
same,GI50,[14],> 100 µM
same,TGI,[14],> 100 µM
same,GI50,[15],65.3 µM
same,TGI,[15],> 100 µM
same,GI50,[16],> 100 µM
same,TGI,[16],> 100 µM
same,GI50,[17],> 100 µM
same,TGI,[17],> 100 µM
same,GI50,[18],> 100 µM
same,TGI,[18],> 100 µM
same,GI50,[19],> 100 µM
same,TGI,[19],> 100 µM
same,GI50,[20],62.8 µM
same,TGI,[20],> 100 µM
same,GI50,[21],14.8 µM
same,TGI,[21],> 100 µM
same,GI50,[22],> 100 µM
same,TGI,[22],> 100 µM
same,GI50,[23],99.5 µM
same,TGI,[23],> 100 µM
same,GI50,[24],> 100 µM
same,TGI,[24],> 100 µM
same,GI50,[25],21.2 µM
same,TGI,[25],56.7 µM
same,GI50,[26],31 µM
same,TGI,[26],> 100 µM
same,GI50,[27],49.5 µM
same,TGI,[27],> 100 µM
same,GI50,[28],> 100 µM
same,TGI,[28],> 100 µM
same,GI50,[29],> 100 µM
same,TGI,[29],> 100 µM
same,GI50,[30],> 100 µM
same,TGI,[30],> 100 µM
same,GI50,[31],14.4 µM
same,TGI,[31],31 µM
same,GI50,[32],> 100 µM
same,TGI,[32],> 100 µM
same,GI50,[33],> 100 µM
same,TGI,[33],> 100 µM
same,GI50,[34],81.8 µM
same,TGI,[34],> 100 µM
same,GI50,[35],> 100 µM
same,TGI,[35],> 100 µM
same,GI50,[36],> 100 µM
same,TGI,[36],> 100 µM
same,GI50,[37],> 100 µM
same,TGI,[37],> 100 µM
same,GI50,[38],> 100 µM
same,TGI,[38],> 100 µM
same,GI50,[39],21 µM
same,TGI,[39],43.1 µM
same,GI50,[40],> 100 µM
same,TGI,[40],> 100 µM
same,GI50,[41],> 100 µM
same,TGI,[41],> 100 µM
same,GI50,[42],53.6 µM
same,TGI,[42],> 100 µM
same,GI50,[43],> 100 µM
same,TGI,[43],> 100 µM
same,GI50,[44],> 100 µM
same,TGI,[44],> 100 µM
same,GI50,[45],36.2 µM
same,TGI,[45],> 100 µM
same,GI50,[46],> 100 µM
same,TGI,[46],> 100 µM
same,GI50,[47],> 100 µM
same,TGI,[47],> 100 µM
same,GI50,[48],> 100 µM
same,TGI,[48],> 100 µM
same,GI50,[49],38.1 µM
same,TGI,[49],> 100 µM
same,GI50,[50],37.3 µM
same,TGI,[50],> 100 µM
same,GI50,[51],> 100 µM
same,TGI,[51],> 100 µM
same,GI50,[52],19 µM
same,TGI,[52],35 µM
same,GI50,[53],> 100 µM
same,TGI,[53],> 100 µM
same,GI50,[54],> 100 µM
same,TGI,[54],> 100 µM
same,GI50,[55],> 100 µM
same,TGI,[55],> 100 µM
same,GI50,[56],> 100 µM
same,TGI,[56],> 100 µM
